Experimental findings from patent US20030068615A1, “Polypeptides that bind HIV gp120 and related nucleic acids, antibodies, compositions, and methods of use” (priority 1999, published 2003) are described below.

Read-outs that look alike come from different tables or passages of the source.

For the assay, the target named is HIV-1LAI envelope gp120 (Human immunodeficiency virus type 1 group M subtype B, UniProt P03377). The class given is binding. The following applies: for number of radioactive decays (counts) counted: human CD4 21-mer scan, empty control 2075; for Counts per 20′ Average-background: CCR5 18-mer scan, radiolabeled HIV-1LAI gp120.
[1] abbreviates: Panel A, 21-mers of CD4, empty control 515 and 617.
[2] abbreviates: STRL33 18-mer scan, background subtracted, first of two count columns.
[3] abbreviates: STRL33 18-mer scan, background subtracted, second of two count columns.
The mark [4] stands for this setting: Panel E, 9-mers and 12-mers of CD4, empty control 571.
[5] abbreviates: Panel C, 15-mers and 18-mers of CD4, empty control 556.
[6] abbreviates: CXCR4 18-mer scan, background subtracted, empty control 0.
Where [7] appears, read: CXCR4 18-mer scan, empty control 412.
Setting [8] is: Panel D, 9-mers and 12-mers of CD4, empty control […].
The mark [9] stands for this setting: Panel B, 15-mers and 18-mers of CD4, empty control 575.

For KVEFKIDIVVLAFQKASSIVY, under setting [1], the “COUNTS of radiolabeled gp120 retained” value is listed as 635 counts.

For the sequence KVTSLLIWVISLLVSLPQ, the “radioactive counts recorded in twenty minutes” value (shortened to “radioactive counts recorded”) was −39.5 counts under setting [2] and −118.5 counts under setting [3].

For the sequence LAFQKASSI, under setting [4], the “COUNTS of radiolabeled gp120 retained” value was 592 counts.

LAFQKASSIVYK: the “COUNTS of radiolabeled gp120 retained” value under setting [4] came to 465 counts.

On to LAFQKASSIVYKKEG, for which, under setting [5], the “COUNTS of radiolabeled gp120 retained” value turned out to be 593 counts.

For the sequence LAFQKASSIVYKKEGEQV, under setting [5], the “COUNTS of radiolabeled gp120 retained” value was determined as 665 counts.

LAFQKASSIVYKKEGEQVEFS: under setting [1], the “COUNTS of radiolabeled gp120 retained” value worked out at 1410 counts.

With LAFTVEKLT, the “COUNTS of radiolabeled gp120 retained” value under setting [4] amounted to 501 counts.

In the case of LAFTVEKLTGSG, the “COUNTS of radiolabeled gp120 retained” value under setting [4] was 608 counts.

In the case of LAFTVEKLTGSGELW, under setting [5], the “COUNTS of radiolabeled gp120 retained” value is 579 counts.

On to LAFTVEKLTGSGELWWQA, for which, under setting [5], the “COUNTS of radiolabeled gp120 retained” value turned out to be 866 counts.

Take LAFTVEKLTGSGELWWQAERA: the “COUNTS of radiolabeled gp120 retained” value under setting [1] is listed as 3577 counts.

With “LEAKTGKLHQEVNLVVMRATQ [human CD4 301-321]”, the “number of radioactive decays (counts) counted” value (“number of radioactive decays” below) is recorded as 1729 counts.

Take LFFLLTVPFWAHYAAAQW [CCR5 segment 77-94]: for the setting “background subtracted”, the “Counts per 20′ Average-background” value turned out to be 173 counts per 20′.

As for LGAKFKTSAQHALTSVSR, the “radioactive counts recorded” value reads like this: under setting [6], 200 counts; under setting [7], 612 counts.

Take LGLVLPLLVMVICYSGIL: the “Counts per 20′ Average-background” value (background subtracted) was 180 counts per 20′.

As for LGMTHCCINPIIYAFVGE [CCR5 segment 285-], the “Counts per 20′ Average-background” value (background subtracted) was 282 counts per 20′.

Consider LIIKNLKIE, for which the “COUNTS of radiolabeled gp120 retained” value under setting [8] is on record as 515 counts.

For the sequence LIIKNLKIEDSD, the “COUNTS of radiolabeled gp120 retained” value under setting [8] is given as 619 counts.

For the sequence LIIKNLKIEDSDTYI, the “COUNTS of radiolabeled gp120 retained” value under setting [9] came to 542 counts.

For LIIKNLKIEDSDTYICEV, the “COUNTS of radiolabeled gp120 retained” value under setting [9] turned out to be 634 counts.

LILAFISLDRYLAIVHAT: the “radioactive counts recorded” value is given as 107 counts under setting [6] and 519 counts under setting [7].

LILINCKRLKSMTDIYLL [CCR5 segment 53-70]: the “Counts per 20′ Average-background” value (background subtracted) came to 2 counts per 20′.

Consider LKARTVTFGVWDSVITWV [CCR5 segment 137-], for which the “Counts per 20′ Average-background” value (background subtracted) came to 74 counts per 20′.

For the sequence “LKFRKNFWKLVKDIGCLP [STRL33 segment 293-310]”, the “radioactive counts recorded” value under setting [2] is recorded as 920.5 counts and the “radioactive counts recorded” value under setting [3] came to 957.5 counts.

As for LKIEDSDTY, the “COUNTS of radiolabeled gp120 retained” value under setting [8] came out at 492 counts.

As for LKIEDSDTYICE, the “COUNTS of radiolabeled gp120 retained” value under setting [8] was found to be 635 counts.

For LKIEDSDTYICEVED, the “COUNTS of radiolabeled gp120 retained” value under setting [9] is 846 counts.

On to LKIEDSDTYICEVEDQKE, for which the “COUNTS of radiolabeled gp120 retained” value under setting [9] is listed as 872 counts.

For “LKNKEVSVKPVTQDPKLQMGK [human CD4 256-276]”, the “number of radioactive decays” value is listed as 2288 counts.

With LKSMTDIYLLNLAISDLF [CCR5 segment 61-78], the “Counts per 20′ Average-background” value (background subtracted) amounted to 210 counts per 20′.

As for LLFVITLPFWAVDAVANW, the “radioactive counts recorded” value was 63 counts under setting [6] and 475 counts under setting [7].

LLGIYTINFYTSMLILTC: the “radioactive counts recorded” value is, setting by setting: under setting [2], 499.5 counts; under setting [3], 408.5 counts.

For the sequence “LLIWVISLLVSLPQIIYG [STRL33 segment 153-170]”, the “radioactive counts recorded” value under setting [2] is 42.5 counts and the “radioactive counts recorded” value under setting [3] worked out at 75.5 counts.

In the case of LLLTIPDFIFANVSEADD, the “radioactive counts recorded” value under setting [6] came out at 1006 counts and the “radioactive counts recorded” value under setting [7] is recorded as 1418 counts.

In the case of LLNLAISDLFFLLTVPFW [CCR5 segment 69-86], the “Counts per 20′ Average-background” value (background subtracted) is given as 144 counts per 20′.

As for LLQGQSLTL, the “COUNTS of radiolabeled gp120 retained” value under setting [8] was determined as 568 counts.

For the sequence LLQGQSLTLTLE, the “COUNTS of radiolabeled gp120 retained” value under setting [8] was determined as 1320 counts.

For the sequence LLRCRNEKKRHRAVRLIF, the “Counts per 20′ Average-background” value (background subtracted) was found to be 102 counts per 20′.

Turning to “LLSDSGQVLLESNIKVLPTWS [human CD4 371-391]”, the “number of radioactive decays” value amounted to 2375 counts.

For the sequence LLTIDRYLAVVHAVFALK, the “Counts per 20′ Average-background” value (background subtracted) amounted to 31 counts per 20′.

LLTQMPFNLMKFIRSTHW: the “radioactive counts recorded” value is on record as 2513.5 counts under setting [2] and 3154.5 counts under setting [3].

Consider LLVFGLTAN, for which the “COUNTS of radiolabeled gp120 retained” value under setting [8] is on record as 576 counts.

Turning to LLVFGLTANSDT, the “COUNTS of radiolabeled gp120 retained” value under setting [8] was found to be 533 counts.

On to LLVFGLTANSDTHLL, for which, under setting [9], the “COUNTS of radiolabeled gp120 retained” value is given as 599 counts.

With LLVFGLTANSDTHLLQGQ, the “COUNTS of radiolabeled gp120 retained” value under setting [9] is on record as 568 counts.

With “LMKFIRSTHWEYYAMTSF [STRL33 segment 249-266]”, the “radioactive counts recorded” value under setting [2] amounted to 934.5 counts and the “radioactive counts recorded” value under setting [3] is recorded as 949.5 counts.

For the sequence “LNPEAGMWQCLLSDSGQVLLE [human CD4 361-381]”, the “number of radioactive decays” value worked out at 6316 counts.

“LNPILYAFLGAKFKTSAQ [CXCR4 segment 297-314]”: the “radioactive counts recorded” value is reported as 274 counts under setting [6] and 686 counts under setting [7].

In the case of LNTFQEFFGLNNCSSSNR [CCR5 segment 257-], the “Counts per 20′ Average-background” value (background subtracted) is 293 counts per 20′.

LPGIIFTRSQKEGLHYTC: the “Counts per 20′ Average-background” value (background subtracted) came to 118 counts per 20′.

For the sequence “LPLADLVFVCTLPFWAYA [STRL33 segment 73-90]”, the “radioactive counts recorded” value came out at 557.5 counts under setting [2] and 960.5 counts under setting [3].

For the sequence LPLLVMVICYSGILKTLL [CCR5 segment 205-], under “background subtracted”, the “Counts per 20′ Average-background” value stood at 68 counts per 20′.

In the case of LPPLYSLVFIFGFVGNML [CCR5 segment 33-50], where the note is “background subtracted”, the “Counts per 20′ Average-background” value is reported as 705 counts per 20′.

On to “LPTIYSIIFLTGIVGNGL [CXCR4 segment 41-58]”, for which the “radioactive counts recorded” value by setting is: under setting [6], 118 counts; under setting [7], 530 counts.

Take LPYLGVSHQWKSSEDNSK: the “radioactive counts recorded” value came out at 111.5 counts under setting [2] and 122.5 counts under setting [3].

For LPYYIGISIDSFILLEII, the “radioactive counts recorded” value under setting [6] came to 439 counts and the “radioactive counts recorded” value under setting [7] is given as 851 counts.

Consider LQGQSLTLT, for which the “COUNTS of radiolabeled gp120 retained” value under setting [8] came out at 501 counts.

LQNQKKVEF: the “COUNTS of radiolabeled gp120 retained” value under setting [4] is 565 counts.

For LQNQKKVEFKID, the “COUNTS of radiolabeled gp120 retained” value under setting [4] worked out at 508 counts.

In the case of LQNQKKVEFKIDIVV, under setting [5], the “COUNTS of radiolabeled gp120 retained” value was determined as 644 counts.

For LQNQKKVEFKIDIVVLAF, under setting [5], the “COUNTS of radiolabeled gp120 retained” value is given as 938 counts.

Regarding “LRSMTDKYRLHLSVADLL [CXCR4 segment 69-86]”, the “radioactive counts recorded” value turned out to be 160 counts under setting [6] and 572 counts under setting [7].

Turning to LSKGKRGGHSSVSTESES, the “radioactive counts recorded” value is, setting by setting: under setting [6], 185 counts; under setting [7], 597 counts.

Turning to LTANSDTHL, the “COUNTS of radiolabeled gp120 retained” value under setting [8] came to 596 counts.

As for LTANSDTHLLQG, under setting [8], the “COUNTS of radiolabeled gp120 retained” value is recorded as 534 counts.

Take LTANSDTHLLQGQSL: the “COUNTS of radiolabeled gp120 retained” value under setting [9] is recorded as 634 counts.

As for LTANSDTHLLQGQSLTLT, under setting [9], the “COUNTS of radiolabeled gp120 retained” value worked out at 528 counts.

For the sequence LTCEVWGPTSPKLMLSLKLEN, the “number of radioactive decays” value was 2412 counts.

Regarding “LTDVFLVNLPLADLVFVC [STRL33 segment 65-82]”, the “radioactive counts recorded” value is, setting by setting: under setting [2], 233.5 counts; under setting [3], 336.5 counts.

In the case of LTGSGELWW, under setting [4], the “COUNTS of radiolabeled gp120 retained” value came to 550 counts.

Consider “LTMIVCYSVIIKTLLHAG [STRL33 segment 205-222]”, for which the “radioactive counts recorded” value turned out to be 2787.5 counts under setting [2] and 2654.5 counts under setting [3].

For LTSVSRGSSLKILSKGKR, the “radioactive counts recorded” value was determined as 183 counts under setting [6] and 595 counts under setting [7].

For the sequence LTVPFWAHYAAAQWDFGN [CCR5 segment 81-98], the “Counts per 20′ Average-background” value (background subtracted) is listed as 306 counts per 20′.

For the sequence LVFFQKHIAKRFCKCCSI, the “Counts per 20′ Average-background” value (background subtracted) came to 76 counts per 20′.

For LVFGLTANS, under setting [8], the “COUNTS of radiolabeled gp120 retained” value worked out at 522 counts.

On to LVFGLTANSDTH, for which, under setting [8], the “COUNTS of radiolabeled gp120 retained” value is recorded as 586 counts.

As to LVFGLTANSDTHLLQ, the “COUNTS of radiolabeled gp120 retained” value under setting [9] is 609 counts.

Take LVFGLTANSDTHLLQGQS: under setting [9], the “COUNTS of radiolabeled gp120 retained” value came to 564 counts.

“LVISIFYHKLQSLTDVFL [STRL33 segment 53-70]”: the “radioactive counts recorded” value runs as follows: under setting [2], 1620.5 counts; under setting [3], 1780.5 counts.

Consider “LVMGYQKKLRSMTDKYRL [CXCR4 segment 61-78]”, for which the “radioactive counts recorded” value was 105 counts under setting [6] and 517 counts under setting [7].

For the sequence LVSLPQIIYGNVFNLDKL, the “radioactive counts recorded” value runs as follows: under setting [2], 91.5 counts; under setting [3], −15.5 counts.

LWDQGNFPLIIKNLK: the “COUNTS of radiolabeled gp120 retained” value under setting [9] turned out to be 502 counts.

With LWDQGNFPLIIKNLKIED, the “COUNTS of radiolabeled gp120 retained” value under setting [9] is reported as 582 counts.

Regarding “LYAFLGAKFKTSAQHALT [CXCR4 segment 301-318]”, the “radioactive counts recorded” value under setting [6] turned out to be 156 counts and the “radioactive counts recorded” value under setting [7] is on record as 568 counts.
